“Also recorded” adds a separate entry of the source.
Experiments:
human CB1 receptor [1] = molecular target: T1, human CB1 receptor (Homo sapiens, UniProt P21554); assay: biochemical; format: binding; details: for residence time: read-out: RT (residence time)
human CB1 receptor [2] = molecular target: T1, human CB1 receptor; assay: [35S]GTPγS binding antagonism assay, hCB1 HEK-293 membranes; format: biochemical; details: recombinant human CB1 receptors on HEK-293 cell membranes, 30 °C; SD (n = 2) or SEM (n ≥ 3)
human CB1 receptor [3] = molecular target: T1, human CB1 receptor; details: association at 30 °C
human CB1 receptor [4] = molecular target: T1, human CB1 receptor

T1 sequence (P21554 whole entry): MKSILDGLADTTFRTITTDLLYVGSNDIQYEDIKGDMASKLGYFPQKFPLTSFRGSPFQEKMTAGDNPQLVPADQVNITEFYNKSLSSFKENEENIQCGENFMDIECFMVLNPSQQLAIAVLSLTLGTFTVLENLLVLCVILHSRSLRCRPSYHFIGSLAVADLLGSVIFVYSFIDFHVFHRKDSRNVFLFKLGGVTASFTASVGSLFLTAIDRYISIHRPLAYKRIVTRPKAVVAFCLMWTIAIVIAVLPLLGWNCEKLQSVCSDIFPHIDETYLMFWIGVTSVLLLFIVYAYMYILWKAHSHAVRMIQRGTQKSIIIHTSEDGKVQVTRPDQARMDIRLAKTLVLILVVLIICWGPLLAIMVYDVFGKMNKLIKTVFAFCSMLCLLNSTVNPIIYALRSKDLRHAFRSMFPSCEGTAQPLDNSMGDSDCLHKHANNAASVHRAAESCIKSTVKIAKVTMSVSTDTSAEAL

Which results are given for `CCCS(=O)(=O)Oc1ccc(-n2c(-c3ccc(Cl)cc3Cl)nc(C(=O)NN3CCCCC3)c2C)cc1` [11b, 4-(2-(2,4-Dichlorophenyl)-5-methyl-4-(piperidin-1-ylcarbamoyl)-1H-imidazol-1-yl)phenyl propane-1-sulfonate]?
koff (human CB1 receptor [1]): 0.00022 s⁻¹; kon (human CB1 receptor [1]): 300000 M⁻¹ s⁻¹; residence time (human CB1 receptor [1]): 78 ± 5 min

How did the “[35S]GTPγS binding pIC50 ± SD or SEM” value (human CB1 receptor [2]) turn out when `CCCCS(=O)(=O)Oc1ccc(-n2c(-c3ccc(Cl)cc3Cl)nc(C(=O)NN3CCCCC3)c2C)cc1` [11e, 4-(2-(2,4-Dichlorophenyl)-5-methyl-4-(piperidin-1-ylcarbamoyl)-1H-imidazol-1-yl)phenyl butane-1-sulfonate] was run?
Its value is 8.9 ± 0.05.

How did the “[35S]GTPγS binding pIC50 ± SD or SEM” value (human CB1 receptor [2]) turn out when `Cc1c(C(=O)NN2CCCCC2)nc(-c2ccc(Cl)cc2Cl)n1-c1ccc(OS(=O)(=O)CCC(C)C)cc1` [11g, 4-(2-(2,4-Dichlorophenyl)-5-methyl-4-(piperidin-1-ylcarbamoyl)-1H-imidazol-1-yl)phenyl 3-methylbutane-1-sulfonate] was run?
Its value is 8.9 ± 0.1.

`Cc1c(C(=O)Nc2ccc(F)nc2)nc(-c2ccc(Cl)cc2Cl)n1-c1ccc(OS(=O)(=O)CCC(F)(F)F)cc1` [14f, 4-(2-(2,4-Dichlorophenyl)-4-(6-fluoropyridin-3-ylcarbamoyl)-5-methyl-1H-imidazol-1-yl)phenyl 3,3,3-trifluoropropane-1-sulfonate] was tested. Which koff (human CB1 receptor [1]) did it give?
Its koff is 0.00027 s⁻¹.

And the kon (human CB1 receptor [1])?
The kon was 720000 M⁻¹ s⁻¹.

What about the residence time (human CB1 receptor [1]) of the same compound?
The residence time was 62 ± 10 min.

For `CCCCCCC(C)(C)c1ccc([C@@H]2C[C@H](O)CC[C@H]2CCCO)c(O)c1` [CP55940], which “time at which binding approached equilibrium” value (human CB1 receptor [3]) is on record?
Its value is “approximately 25 min”.

Which koff (human CB1 receptor [1]) does the source give for `Cc1c(C(=O)Nc2ccc(C(F)(F)F)cn2)nc(-c2ccc(Cl)cc2Cl)n1-c1ccc(OS(=O)(=O)CCC(F)(F)F)cc1` [compound 28, 4-(2-(2,4-Dichlorophenyl)-5-methyl-4-(5-(trifluoromethyl)pyridin-2-ylcarbamoyl)-1H-imidazol-1-yl)phenyl 3,3,3-trifluoropropane-1-sulfonate] here?
The koff was 7.8e-05 s⁻¹.

What about the kon (human CB1 receptor [1]) of the same compound?
The kon was 350000 M⁻¹ s⁻¹.

And the residence time (human CB1 receptor [1])?
The residence time was 260 ± 56 min.

And the “activity of compound alone (absence of CP55940)” value (human CB1 receptor [4])?
The value was “inverse agonism”.

What about the “type of antagonism of CP55940 action” value (human CB1 receptor [4]) of the same compound?
Its value is “insurmountable antagonism; also recorded: insurmountability”.

— article PMC5734604 (Journal of Medicinal Chemistry, 2017)
